The numbers were not newly measured in US20030149010A1, “Combination of an aldosterone receptor antagonist and an HMG CoA reductase inhibitor” (priority 2001, published 2003), which cites them from elsewhere.

In data set [1] the test system is patients afflicted with congestive heart failure. To be noted: coadministered with an ACE inhibitor.
Data set [2] relates to patients with severe heart failure. To be noted: spironolactone added to ACE inhibitor therapy; 1663 patients with severe heart failure.

Turning to `CC(=O)S[C@@H]1CC2=CC(=O)CC[C@]2(C)[C@H]2CC[C@@]3(C)[C@@H](CC[C@@]34CCC(=O)O4)[C@H]12` [spironolactone, 17-hydroxy-7α-mercapto-3-oxo-17α-pregn-4-ene-21-carboxylic acid γ-lactone acetate], the “effectiveness in congestive heart failure” value in data set [1] is reported as “highly effective in 13 of 16 patients”. Moreover, in data set [2], the reduction in hospitalizations was 35% and the reduction in mortality was 30%.
